Assay: xn = mol fraction of the nth substance listed
Conditions: Liquid, Vibrating tube method

c1ccsc1 [thiophene] + O=C=O
Conditions | mass density [kg/m3]
322.95 K, 19000 kPa, x2 = 0.199 | 1032.53
322.96 K, 8142 kPa, x2 = 0.5661 | 964.89
322.96 K, 9024 kPa, x2 = 0.5661 | 967.04
322.96 K, 10004 kPa, x2 = 0.5661 | 969.41
322.96 K, 11043 kPa, x2 = 0.5661 | 971.85
322.96 K, 12049 kPa, x2 = 0.5661 | 974.11
322.96 K, 13009 kPa, x2 = 0.5661 | 976.27
322.96 K, 14014 kPa, x2 = 0.5661 | 978.41
322.96 K, 15031 kPa, x2 = 0.5661 | 980.61
322.96 K, 16040 kPa, x2 = 0.5661 | 982.75
322.96 K, 17014 kPa, x2 = 0.5661 | 984.76
322.96 K, 18012 kPa, x2 = 0.5661 | 986.77
322.96 K, 19036 kPa, x2 = 0.5661 | 988.76
323.01 K, 1047 kPa, x2 = 0 | 1028.97
323.01 K, 2059 kPa, x2 = 0 | 1029.98
323.01 K, 3070 kPa, x2 = 0 | 1031.02
323.01 K, 4047 kPa, x2 = 0 | 1031.99
323.01 K, 5002 kPa, x2 = 0 | 1032.9
323.01 K, 6005 kPa, x2 = 0 | 1033.9
323.01 K, 7068 kPa, x2 = 0 | 1034.92
323.01 K, 8021 kPa, x2 = 0 | 1035.81
323.01 K, 9013 kPa, x2 = 0 | 1036.76
323.01 K, 10005 kPa, x2 = 0 | 1037.67
323.01 K, 10991 kPa, x2 = 0 | 1038.62
323.01 K, 12034 kPa, x2 = 0 | 1039.58
323.01 K, 12977 kPa, x2 = 0 | 1040.44
323.01 K, 13999 kPa, x2 = 0 | 1041.38
323.01 K, 14991 kPa, x2 = 0 | 1042.26
323.01 K, 15995 kPa, x2 = 0 | 1043.17
323.01 K, 16998 kPa, x2 = 0 | 1044.03
323.01 K, 17983 kPa, x2 = 0 | 1044.93
323.01 K, 18951 kPa, x2 = 0 | 1045.78
323.06 K, 10088 kPa, x2 = 0.9217 | 726.5
323.06 K, 11019 kPa, x2 = 0.9217 | 748.28
323.06 K, 12026 kPa, x2 = 0.9217 | 766.89
323.06 K, 13007 kPa, x2 = 0.9217 | 781.83
323.06 K, 14004 kPa, x2 = 0.9217 | 794.96
323.06 K, 15030 kPa, x2 = 0.9217 | 806.9
323.06 K, 16054 kPa, x2 = 0.9217 | 817.45
323.06 K, 17033 kPa, x2 = 0.9217 | 826.57
323.06 K, 18006 kPa, x2 = 0.9217 | 835.18
323.06 K, 19038 kPa, x2 = 0.9217 | 843.46
323.06 K, 20051 kPa, x2 = 0.9217 | 850.95
323.06 K, 21005 kPa, x2 = 0.9217 | 857.68
323.06 K, 22019 kPa, x2 = 0.9217 | 864.36
323.06 K, 23033 kPa, x2 = 0.9217 | 870.67
323.06 K, 24027 kPa, x2 = 0.9217 | 876.59
323.06 K, 24980 kPa, x2 = 0.9217 | 882.14
323.08 K, 6997 kPa, x2 = 0.3818 | 994.07
323.08 K, 8053 kPa, x2 = 0.3818 | 995.85
323.08 K, 9009 kPa, x2 = 0.3818 | 997.45
323.08 K, 10081 kPa, x2 = 0.3818 | 999.25
323.08 K, 11041 kPa, x2 = 0.3818 | 1000.81

Source: the NIST ThermoML archive (doi:10.1016/j.fluid.2005.07.017)
